Experimental data taken from publication PMC6273767, “Comparative Studies of Interactions between Fluorodihydroquinazolin Derivatives and Human Serum Albumin with Fluorescence Spectroscopy” (Molecules, 2016).

Biological target: T1, human serum albumin (HSA) (Homo sapiens, UniProt P02768)
T1 construct: gene ALB; mature serum albumin, 585 residues (signal and propeptide removed)
Experiment: tryptophan fluorescence quenching, modified Stern-Volmer
Format: binding
Details: 298 K, pH 7.4, 0.1 M Tris, 0.1 M NaCl, 1 µM HSA, excitation 280 nm; mainly site II (subdomain IIIA)
Source text: tryptophan fluorescence quenching, modified Stern-Volmer on human serum albumin (HSA)

T1 sequence (P02768 25-609): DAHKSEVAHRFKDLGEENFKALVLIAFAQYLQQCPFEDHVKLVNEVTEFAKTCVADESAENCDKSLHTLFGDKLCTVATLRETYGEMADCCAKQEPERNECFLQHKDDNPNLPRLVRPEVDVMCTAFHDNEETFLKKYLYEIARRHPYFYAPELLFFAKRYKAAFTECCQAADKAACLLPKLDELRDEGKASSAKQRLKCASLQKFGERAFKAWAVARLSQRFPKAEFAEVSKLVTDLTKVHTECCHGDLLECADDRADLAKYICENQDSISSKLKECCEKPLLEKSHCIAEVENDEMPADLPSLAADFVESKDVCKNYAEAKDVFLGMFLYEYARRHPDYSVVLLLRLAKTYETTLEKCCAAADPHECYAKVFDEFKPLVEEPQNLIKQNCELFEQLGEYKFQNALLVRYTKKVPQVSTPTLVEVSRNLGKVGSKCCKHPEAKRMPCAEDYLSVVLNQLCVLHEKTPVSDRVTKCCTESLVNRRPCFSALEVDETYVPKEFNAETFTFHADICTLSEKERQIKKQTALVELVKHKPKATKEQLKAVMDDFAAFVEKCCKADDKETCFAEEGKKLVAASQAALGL

CC(C)(C)CC(=O)N1c2ccc(Cl)cc2C(=O)N(N=Cc2cccc(F)c2)C1c1ccccc1 (stereo not shown) [3c, 6-Chloro-1-(3,3-dimethylbutanoyl)-3-(3-fluorobenzylideneamino)-2-phenyl-2,3-dihydroquinazolin-4(1H)-one]
Ka (×10^4 M^-1): 2.73 × 10^4 M^−1

CC(C)(C)CC(=O)N1c2ccc(Cl)cc2C(=O)N(N=Cc2ccccc2)C1c1ccccc1 (stereo not shown) [3a, 3-(Benzylideneamino)-6-chloro-1-(3,3-dimethylbutanoyl)-2-phenyl-2,3-dihydroquinazolin-4(1H)-one]
Ka (×10^4 M^-1): 2.16 × 10^4 M^−1

CC(C)(C)CC(=O)N1c2ccc(Cl)cc2C(=O)N(N=Cc2ccccc2F)C1c1ccccc1 (stereo not shown) [3d, 6-Chloro-1-(3,3-dimethylbutanoyl)-3-(2-fluorobenzylideneamino)-2-phenyl-2,3-dihydroquinazolin-4(1H)-one]
Ka (×10^4 M^-1): 2.46 × 10^4 M^−1

CC(C)(C)CC(=O)N1c2ccc(Cl)cc2C(=O)N(N=Cc2ccc(F)cc2)C1c1ccccc1 (stereo not shown) [3b, 6-Chloro-1-(3,3-dimethylbutanoyl)-3-(4-fluorobenzylideneamino)-2-phenyl-2,3-dihydroquinazolin-4(1H)-one]
Ka (×10^4 M^-1): 2.33 × 10^4 M^−1
